Like-named read-outs stand apart in the source and are kept apart here. Each block holds one compound with its values, some of them ahead of it.
Key:
[1] = Pharmacokinetics assessments in phase I patients (plasma, steady state); settings: for Tmax,ss: median (range); for AUC: AUC0→τ,ss
Procedure: This was a dual-agent, open-label, phase I study. […] We conducted the trial following the 3 + 3 dose-escalation phase I clinical trial design. […] There were three cohorts and at least […] were enrolled for each dose level. No intra-patient dose escalation was allowed, and each patient’s first dose was at least 5 days apart from the next patient’s first dose. DLTs were assessed during the initial 8-week and 4-week treatment periods for Cohort 1 and Cohorts 2/3, respectively. The criteria for DLTs are listed in Supplementary Table S1. […] The enrolled patients were treated until disease progression.
A plasma concentration–time profile for MG005 as a single agent was established, and PK parameters in terms of the following were also determined: peak plasma concentration (Cmax)/at steady state (Cmax,ss); time to reach peak concentration (Tmax)/at steady state (Tmax,ss); AUC in 1 dosing interval at steady state (AUC0→τ,ss).

[2] = Solubility of MG005 and MG010; assay type: physicochemical; settings: in words
[3] = set-up: method as in PMID 26100670; settings: in vitro and in vivo studies; cited from earlier work
[4] = cited from earlier work
[5] = cited from earlier work; remark: listed apart in the source
[6] = Day 28, Cohort 1: 750 mg QD MG005 plus 200 mg QD sorafenib, mean ± SD
[7] = Day 28, Cohort 2: 1500 mg QD MG005 plus 200 mg QD sorafenib, mean ± SD
[8] = Day 28, Cohort 2: 1500 mg QD MG005 plus 200 mg QD sorafenib
[9] = Day 28, Cohort 3: 750 mg BID MG005 plus 200 mg QD sorafenib, mean ± SD

SMILES: O=C1Nc2ccc(I)cc2/C1=C/c1cc(Br)c(O)c(Br)c1 [GW5074]
AUC0→τ,ss [1, 6]: 5639.9 ± 2675.9 ng·h/mL | Cmax,ss [1, 6]: 685.6 ± 335.4 ng/mL | Tmax,ss ([1]; Day 28, Cohort 1: 750 mg QD MG005 plus 200 mg QD sorafenib): 6.0 (5.0–6.0) Hr | AUC0→τ,ss [1, 7]: 5553.7 ± 950.2 ng·h/mL | Cmax,ss [1, 7]: 786.0 ± 180.0 ng/mL | Tmax,ss [1, 8]: 4.0 (2.1–4.1) Hr | AUC0→τ,ss [1, 9]: 6249.6 ± 2619.6 ng·h/mL | Cmax,ss [1, 9]: 620.0 ± 382.6 ng/mL | Tmax,ss ([1]; Day 28, Cohort 3: 750 mg BID MG005 plus 200 mg QD sorafenib): 14.0 (0.0–23.9) Hr | bioavailability ([1]; patients, oral): low bioavailability | absorption ([1]; patients, 750 mg QD to 1500 mg QD gave no significant increase in bioavailability): poor absorption | half-life ([1]; patients, compared to sorafenib): significantly shorter half-life when compared to sorafenib | solubility [2]: not satisfactory | solubility ([2]; listed as MG005): poor solubility | mutagenicity and genotoxicity [3]: neither mutagenic nor genotoxic | findings of repeated toxicity studies ([4]; rat, in vivo): did not cause major abnormality except emesis and watery stool | no-observed-adverse-effect-level (NOAEL) ([4]; repeated dosing): highest dose levels tested | findings of repeated toxicity studies ([5]; dog, in vivo): did not cause major abnormality except emesis and watery stool | no-observed-adverse-effect-level (NOAEL) ([5]; repeated dosing): highest dose levels tested

Tmax,ss [1, 8]: 8.0 (2.1–23.5) Hr | AUC ([1]; human, plasma, oral, Day 28, Cohort 1: 750 mg QD MG005 plus 200 mg QD sorafenib, mean ± SD): 88600 ng·h/mL | AUC ([1]; human, plasma, oral, Day 28, Cohort 2: 1500 mg QD MG005 plus 200 mg QD sorafenib, mean ± SD): 51400 ng·h/mL | AUC ([1]; human, plasma, oral, Day 28, Cohort 3: 750 mg BID MG005 plus 200 mg QD sorafenib, mean ± SD): 30600 ng·h/mL | Cmax ([1]; human, plasma, oral, Cmax,ss, Day 28, Cohort 2: 1500 mg QD MG005 plus 200 mg QD sorafenib, mean ± SD): 3730 ± 1530 ng/mL
SMILES: CNC(=O)c1cc(Oc2ccc(NC(=O)Nc3ccc(Cl)c(C(F)(F)F)c3)cc2)ccn1 [sorafenib, reference compound]

Reference: publication PMC9031611 (Journal of Clinical Medicine, 2022)
